Values after ≈ are worked out from the molar mass of the structure shown.
Tests used:
[1] = DNDI: Cytotoxicity against L929 mouse fibroblasts, 72 hour.; assay type: toxicity, cell-based; details: mouse, L929 mouse fibroblasts
[2] = test system: Trypanosoma brucei; assay: DNDI: Inhibition of Human African Trypanosomiasis, SBRI 427, in vitro; assay type: functional, organism-based; details: Trypanosoma brucei, SBRI 427; read-out: IC50

| IC50 [2] [µg/mL] | Structure (SMILES) | IC50 at 72 h [1] [µg/mL] |
| --- | --- | --- |
| 0.27 (≈ 0.832 µM) | Cc1ccc(Oc2ccccc2/C(=N/O)NC2CCCCC2)cc1 | 4.06 (≈ 12.5 µM) |
| > 5 | COc1ccc(CNC(CC(C)C)c2nc(Cc3ccccc3)c(N3CCCCC3)o2)cc1OC (stereo not given) | > 10 |
| 1.54 (≈ 4.87 µM) | CCCCCC(C)NCc1nc(-c2cccc(OC)c2)oc1C (stereo not given) | > 10 |
| 0.37 (≈ 1.18 µM) | CCCCCCNCc1coc(-c2ccc(CCCC)cc2)n1 | 1.15 (≈ 3.66 µM) |
| 2.07 (≈ 5.51 µM) | CN(C)CCNc1cc(-c2ccccc2)nc2cc(-c3cccc(F)c3)nn12 | 1.78 (≈ 4.74 µM) |
| > 5 | Cc1ccc(CNC(c2cccc(Cl)c2)c2nc(Cc3ccccc3)c(N3CCOCC3)o2)cc1 (stereo not given) | > 10 |
| 1.32 (≈ 4.12 µM) | CCCCc1ccc(-c2nc(CNCc3ccccc3)co2)cc1 | 3.29 (≈ 10.3 µM) |
| > 5 | C#[N+]C(C(=O)N1CCOCC1)c1ccccc1 (stereo not given) | > 10 |
| > 5 | CN(C)CC(C)(C)CNc1cc(-c2ccccc2)nc2cc(-c3cccc(F)c3)nn12 | > 10 |
| > 5 | Brc1nn2ccnc2s1 | > 10 |
| 4.46 (≈ 9.4 µM) | CC(C)CC(NCc1ccc(Cl)c(Cl)c1)c1nc(-c2ccccc2)c(N2CCOCC2)o1 (stereo not given) | > 10 |
| 0.1 (≈ 0.291 µM) | CCCCc1ccc(-c2nc(CNCCCN(CC)CC)co2)cc1 | 0.89 (≈ 2.59 µM) |
| 2.04 (≈ 5.98 µM) | CCCCCC(C)NCc1coc(-c2c(Cl)cccc2Cl)n1 (stereo not given) | 5.76 (≈ 16.9 µM) |
| 1.3 (≈ 4.57 µM) | CCCCc1ccc(-c2nc(CNC3CCC3)co2)cc1 | 3.51 (≈ 12.3 µM) |
| > 5 | COc1ccc(S(=O)(=O)NC2CCCCC2)cc1OC | > 10 |
| > 5 | COc1ccccc1CNC(c1ccccc1)c1nc(-c2ccccc2)c(N2CCOCC2)o1 (stereo not given) | > 10 |
| 4.04 (≈ 9.79 µM) | Fc1ccc(-c2cc3nc(-c4ccccc4)cc(NCCCn4ccnc4)n3n2)cc1 | 7.66 (≈ 18.6 µM) |
| 3.65 (≈ 8.78 µM) | Fc1ccc(-c2cc3nc(-c4ccccc4)cc(NCCCN4CCCC4)n3n2)cc1 | 6.92 (≈ 16.7 µM) |
| > 5 | CCCCc1ccc(-c2nc(-c3ccc(OC)cc3)co2)cc1 | > 10 |
| 0.3 (≈ 0.886 µM) | CCCCc1ccc(-c2nc(CNCCCn3ccnc3)co2)cc1 | 0.66 (≈ 1.95 µM) |
| > 5 | CCOCCCNC(CC(C)C)c1nc(-c2ccccc2)c(N2CCOCC2)o1 (stereo not given) | > 10 |
| 0.75 (≈ 2.75 µM) | CCCCc1ccc(-c2nc(CNCCC)co2)cc1 | 4.29 (≈ 15.7 µM) |

| IC50 [2] [µg/mL] | Structure (SMILES) | IC50 at 72 h [1] [µg/mL] |
| --- | --- | --- |
| 0.61 (≈ 2.03 µM) | CCCCc1ccc(-c2nc(CNC(C)CCC)co2)cc1 (stereo not given) | 2.03 (≈ 6.76 µM) |
| > 5 | COc1ccc(CNC(CC(C)C)c2nc(C(C)C)c(N3CCOCC3)o2)cc1 (stereo not given) | > 10 |
| 0.41 (≈ 0.916 µM) | CCCCCC(C)NCc1coc(-c2ccc(OCc3ccc(Cl)c(Cl)c3)cc2)n1 (stereo not given) | 1.9 (≈ 4.25 µM) |
| > 5 | COc1cccc(C(NCc2ccc(C)cc2)c2nc(Cc3ccccc3)c(N3CCOCC3)o2)c1 (stereo not given) | > 10 |
| > 5 | O=C1CC(=O)N(C(=O)OCc2ccccc2)C1COCc1ccccc1 (stereo not given) | > 10 |
| > 5 | O=c1cc(-c2ccccc2)[nH]c2cc(-c3ccc(F)cc3)nn12 | 10 (≈ 32.8 µM) |
| 1.1 (≈ 2.82 µM) | CN(C)CCCNc1cc(-c2ccccc2)nc2cc(-c3ccc(F)cc3)nn12 | 2.57 (≈ 6.6 µM) |
| 0.51 (≈ 1.7 µM) | CCCCCNCc1coc(-c2ccc(CCCC)cc2)n1 | 1.64 (≈ 5.46 µM) |
| 2.88 (≈ 7.53 µM) | COc1cccc(OC)c1CNCc1coc(-c2ccc(OC(C)C)cc2)n1 | 4.15 (≈ 10.9 µM) |
| > 5 | CCOCCCNC(c1nc(C(C)C)c(N2CCOCC2)o1)C1CC1 (stereo not given) | > 10 |
| > 5 | COc1ccccc1C(=O)c1nc(-c2ccccc2)oc1N | > 10 |
| 0.9 (≈ 2.64 µM) | CCCCCC(C)NCc1coc(-c2ccc(Cl)cc2Cl)n1 (stereo not given) | 3.47 (≈ 10.2 µM) |
| > 5 | CCCCc1ccc(-c2nc(Nc3ccccn3)co2)cc1 | > 10 |
| 1.35 (≈ 3.15 µM) | CCCCCCCCCCOc1ccc(-c2nc(CNC(C)CCCCC)co2)cc1 (stereo not given) | 2.9 (≈ 6.77 µM) |
| 0.535 (≈ 1.48 µM) | NCCCNc1cc(-c2ccccc2)nc2cc(-c3cccc(F)c3)nn12 | 1.57 (≈ 4.34 µM) |
| > 5 | CCCCc1ccc(-c2nc(CN3C(=O)c4ccccc4C3=O)co2)cc1 | > 10 |
| 0.42 (≈ 1.17 µM) | CCCCCC(C)NCc1coc(-c2ccc(OCCCC)c(C)c2)n1 (stereo not given) | 1.37 (≈ 3.82 µM) |
| 0.57 (≈ 1.5 µM) | O/N=C(\NC1CCCCC1)c1cccnc1Oc1cc(Cl)ccc1Cl | > 10 |
| > 5 | CCCCCCC/C(O)=C1/C(=O)CN(C)C1=O | > 10 |
| 0.87 (≈ 2.6 µM) | CCCCc1ccc(-c2nc(CNC(C)c3ccccc3)co2)cc1 (stereo not given) | 3.33 (≈ 9.96 µM) |
| 3.96 (≈ 9.51 µM) | CCc1cccc(N/C(=N\O)c2ccc(C)nc2Oc2cc(Cl)ccc2Cl)c1 | 4.7 (≈ 11.3 µM) |
| > 5 | CC(C)(C)OC(=O)N1CCC(Nc2cc(-c3ccccc3)nc3cc(-c4ccc(F)cc4)nn23)C1 (stereo not given) | > 10 |

| IC50 [2] [µg/mL] | Structure (SMILES) | IC50 at 72 h [1] [µg/mL] |
| --- | --- | --- |
| 1.05 (≈ 2.51 µM) | CCN(CC)CCCNc1cc(-c2ccccc2)nc2cc(-c3cccc(F)c3)nn12 | 2.51 (≈ 6.01 µM) |
| 0.74 (≈ 1.91 µM) | CCCCc1ccc(-c2nc(CNCCCNC(=O)OC(C)(C)C)co2)cc1 | 1.47 (≈ 3.79 µM) |
| > 5 | Cc1cc(NCC(C)(C)CN(C)C)n2nc(-c3cccc(F)c3)cc2n1 | 9.64 (≈ 27.1 µM) |
| > 5 | Cc1ccc(CNC(c2nc(Cc3ccccc3)c(N3CCOCC3)o2)c2ccccc2F)cc1 (stereo not given) | > 10 |
| 1.68 (≈ 4.18 µM) | Fc1ccc(-c2cc3nc(-c4ccccc4)cc(NCCN4CCCC4)n3n2)cc1 | 4.94 (≈ 12.3 µM) |
| > 5 | Fc1c(F)c(F)c(CO/N=C/c2ccccc2-c2ccccc2)c(F)c1F | > 10 |
| > 5 | C/C(O)=C1\C(=O)NC(CC(C)C)C1=O (stereo not given) | > 10 |
| > 5 | C/C(O)=C1/C(=O)CN(C)C1=O | > 10 |
| > 5 | CCCCc1ccc(-c2nc(CNCc3ccc(Cl)cc3)co2)cc1 | 7.38 (≈ 20.8 µM) |
| > 5 | CCCCc1ccc(-c2nc(C(=O)OCC)co2)cc1 | > 10 |
| > 5 | O/N=C1\COc2ccccc21 | > 10 |
| > 5 | Cc1cc(NCCCN2CCCC2)n2nc(-c3cccc(F)c3)cc2n1 | > 10 |
| 3.61 (≈ 11.4 µM) | CCCCCC(C)NCc1coc(-c2ccc3c(c2)OCO3)n1 (stereo not given) | 10 (≈ 31.6 µM) |
| > 5 | Cc1cc(NCCCN2CCCC2=O)n2nc(-c3cccc(F)c3)cc2n1 | > 10 |
| 0.63 (≈ 2.1 µM) | CCCCc1ccc(-c2nc(CNC(CC)CC)co2)cc1 | 1.83 (≈ 6.09 µM) |
| > 5 | CC(C)c1ccc(-c2nc(CNCCCN(C)C)co2)cc1 | > 10 |
| > 5 | O=C1CCCN1CCCNc1cc(-c2ccccc2)nc2cc(-c3cccc(F)c3)nn12 | > 10 |
| > 5 | CCCCc1ccc(-c2nc3ncccc3o2)cc1 | > 10 |
| > 5 | CCC(C)C(NCc1ccc(C)cc1)c1nc(-c2ccccc2)c(N2CCCCC2)o1 (stereo not given) | > 10 |
| > 5 | Cc1ccc(CNC(CC(C)C)c2nc(C(C)C)c(N3CCOCC3)o2)cc1 (stereo not given) | > 10 |
| 2.15 (≈ 6.35 µM) | CCCCCC(C)NCc1coc(-c2ccc(OC(F)F)cc2)n1 (stereo not given) | 3.82 (≈ 11.3 µM) |

Source: ChEMBL document CHEMBL1857833, “Screening and optimization of specific chemical series against human African Trypanosomiasis (HAT)”
